The source of these data is PubChem BioAssay (NCI).

Molecules are shown by their SMILES. Values joined by “and” are separate entries in the source; they are usually repeats but may differ in a detail not shown here. Equal entries are not always repeated.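 Five concentrations, 48 hours, 96-well plates. Abbreviation: GI50, concentration required for 50% inhibition of growth. At the TGI there is no net growth.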

Some test systems named below: UO-31 renal; MALME-3M melanoma; NCI-H522 lung; NCI-H226 lung; IGROV1 ovarian; MOLT-4 leukemia; OVCAR-8 ovarian; SN12C renal; A498 renal.
Common to all, as to test: growth of human tumour cells (NCI), 48 h

In the case of `CC(C)(C)C1CCC(O)(c2ccccc2)CC1` (stereo not given), the TGI was > 100 µM in the experiment on UO-31 renal; > 100 µM and 63.2 µM with MALME-3M melanoma; > 100 µM and 55.1 µM in the experiment with NCI-H522 lung; > 100 µM and 43 µM with NCI-H226 lung; > 100 µM and 81.5 µM with IGROV1 ovarian; > 100 µM and 39.5 µM in the experiment with MOLT-4 leukemia. Further, the TGI in the experiment on OVCAR-8 ovarian is > 100 µM and 46.9 µM; in the experiment with SN12C renal, > 100 µM and 34.7 µM; in the experiment with A498 renal it was > 100 µM and 51.4 µM.

`COc1ccc2cc3n(c(=O)c2c1)CCc1c-3cc(OC)c(OC)c1OC`: the TGI with UO-31 renal, in the experiment with MALME-3M melanoma, with NCI-H522 lung, in the experiment with NCI-H226 lung, in the experiment on IGROV1 ovarian and in the experiment with MOLT-4 leukemia was > 100 µM in each case. Moreover, the TGI in the experiment with OVCAR-8 ovarian and with SN12C renal was > 100 µM each time.

For `CN(C)c1ccc(/C=c2/sc3nc(=O)c(-c4ccccc4NC(=O)C(F)(F)F)nn3c2=O)cc1`, the TGI with UO-31 renal, in the experiment with MALME-3M melanoma, in the experiment on NCI-H522 lung, with NCI-H226 lung, with IGROV1 ovarian and with MOLT-4 leukemia was > 100 µM throughout. In addition, the TGI with OVCAR-8 ovarian and with SN12C renal was > 100 µM in each case.

For the compound `CC(C)(C)c1ccc(OCCOCCOc2ccc(C(C)(C)C)cc2S(N)(=O)=O)c(S(N)(=O)=O)c1`, the TGI in the experiment on UO-31 renal is > 100 µM; in the experiment on MALME-3M melanoma it was > 100 µM; in the experiment on NCI-H226 lung it was > 100 µM; with IGROV1 ovarian it was > 100 µM; with MOLT-4 leukemia it was 28.7 µM; with OVCAR-8 ovarian, > 100 µM. In addition, the TGI in the experiment on SN12C renal and with A498 renal was > 100 µM each time.

As to `CCN1CCN(CC(=O)Nc2nc3ccc(NCc4ccc(Br)cc4)cc3s2)CC1`, the GI50 in the experiment with UO-31 renal was 1.78 µM; in the experiment on MALME-3M melanoma, 1.66 µM; with NCI-H226 lung, 7.89 µM; with OVCAR-8 ovarian, 3.25 µM; in the experiment with SN12C renal it was 2.73 µM; in the experiment with A498 renal, 1.76 µM. The TGI in the experiment on UO-31 renal was 3.4 µM; in the experiment on MALME-3M melanoma, 3.19 µM; in the experiment on NCI-H226 lung it was > 100 µM; in the experiment with OVCAR-8 ovarian, > 100 µM; in the experiment with SN12C renal, > 100 µM; with A498 renal it was 3.46 µM.

As to `O=C(NO)c1ccc(CNc2cccc3nc(C4CC4)n(-c4ccccc4)c(=O)c23)cc1`, the GI50 with UO-31 renal was 1.45 µM; in the experiment with MALME-3M melanoma it was 2.05 µM; with NCI-H522 lung it was 1.47 µM; in the experiment with NCI-H226 lung, 2.93 µM; in the experiment with IGROV1 ovarian it was 1.44 µM; with MOLT-4 leukemia, 2.79 µM. The GI50 is 1.65 µM with OVCAR-8 ovarian, 2.4 µM in the experiment with SN12C renal and 1.87 µM with A498 renal. Also, the TGI in the experiment with UO-31 renal is 2.96 µM; in the experiment on MALME-3M melanoma, 7.61 µM; with NCI-H522 lung, 3.38 µM; in the experiment on NCI-H226 lung it was 15 µM; in the experiment on IGROV1 ovarian, 3.01 µM; in the experiment with MOLT-4 leukemia, 23.3 µM. Moreover, the TGI in the experiment with OVCAR-8 ovarian came to 5.82 µM; with SN12C renal, 10.9 µM; in the experiment with A498 renal, 4.03 µM.

Regarding `ON1CCc2c([nH]c3ccccc23)C1c1ccc(Cl)cc1` (stereo not given), the TGI in the experiment with UO-31 renal was 91.7 µM; in the experiment on MALME-3M melanoma it was 77.6 µM; in the experiment on NCI-H522 lung, 60 µM; in the experiment with NCI-H226 lung, 73 µM; with MOLT-4 leukemia, 79.7 µM; in the experiment with OVCAR-8 ovarian, > 100 µM. In addition, the TGI with SN12C renal is 81 µM; in the experiment on A498 renal, > 100 µM.

For the compound `CNS(=O)(=O)NNS(=O)(=O)c1ccc(C)cc1`, the TGI in the experiment on UO-31 renal, with MALME-3M melanoma, in the experiment on NCI-H522 lung, with IGROV1 ovarian, with MOLT-4 leukemia and in the experiment on OVCAR-8 ovarian was > 100 µM each time. Besides, the TGI in the experiment on SN12C renal and with A498 renal was > 100 µM each time.

Consider `CN(C)c1ccc(/C=C2\CCc3ccccc3C2=O)cc1Br`, for which the TGI in the experiment on UO-31 renal, in the experiment with MALME-3M melanoma, in the experiment on NCI-H522 lung, with NCI-H226 lung, with MOLT-4 leukemia and in the experiment with OVCAR-8 ovarian was > 100 µM throughout. Further, the TGI in the experiment with SN12C renal was > 100 µM.

In the case of `c1cc(OCCCCCOc2cccc(-c3nc4ccccc4[nH]3)c2)cc(-c2nc3ccccc3[nH]2)c1`, the GI50 was 1.87 µM in the experiment on MALME-3M melanoma; 2.48 µM in the experiment on NCI-H522 lung; 1.92 µM with NCI-H226 lung; 0.324 µM in the experiment on IGROV1 ovarian; 2.53 µM in the experiment on OVCAR-8 ovarian; 4.61 µM with SN12C renal. Moreover, the GI50 with A498 renal is 2.61 µM. The TGI in the experiment with MALME-3M melanoma is 5.02 µM; in the experiment on NCI-H522 lung, > 100 µM; with NCI-H226 lung, > 100 µM; in the experiment with IGROV1 ovarian, > 100 µM; in the experiment on OVCAR-8 ovarian, 6.15 µM; in the experiment on SN12C renal, > 100 µM. In addition, the TGI in the experiment with A498 renal was determined as 7.91 µM.

For the compound `O=c1c2cc(Br)ccc2nc(CNc2ccccc2)n1-c1ccccc1`, the TGI with UO-31 renal is > 57.8 µM; in the experiment with MALME-3M melanoma it was 28.4 µM; in the experiment with NCI-H522 lung, 19.9 µM; in the experiment with NCI-H226 lung, 43.9 µM; with IGROV1 ovarian, 36.8 µM; with MOLT-4 leukemia, > 67.7 µM. Besides, the TGI with OVCAR-8 ovarian is > 57 µM; with SN12C renal, 29 µM; with A498 renal, 93.4 µM.

In the case of `CCC12C=C(C(=O)OC)N3c4ccccc4C4CCN(CCC1)C2C43` (stereo not given), the TGI was > 100 µM with UO-31 renal; 70.4 µM with MALME-3M melanoma; > 100 µM in the experiment with NCI-H522 lung; 82.5 µM in the experiment on NCI-H226 lung; > 100 µM in the experiment with IGROV1 ovarian; > 100 µM in the experiment with MOLT-4 leukemia. In addition, the TGI in the experiment with OVCAR-8 ovarian, with SN12C renal and in the experiment with A498 renal was > 100 µM in each case.

Regarding `N#CC1(CCCCl)CCCCC1`, the TGI with UO-31 renal, in the experiment on MALME-3M melanoma, in the experiment on NCI-H522 lung, with IGROV1 ovarian, in the experiment with MOLT-4 leukemia and with OVCAR-8 ovarian was > 100 µM each time. For the same compound, the TGI with SN12C renal and in the experiment with A498 renal was > 100 µM in each case.

As to `CCCCC(C(=O)C(=O)Nc1ccccc1CC)C(=O)C(C)C` (stereo not given), the TGI in the experiment with UO-31 renal, in the experiment on MALME-3M melanoma, in the experiment with NCI-H522 lung, in the experiment with NCI-H226 lung, in the experiment with IGROV1 ovarian and with MOLT-4 leukemia was > 100 µM in each case. The TGI in the experiment with OVCAR-8 ovarian, with SN12C renal and in the experiment on A498 renal was > 100 µM throughout.
